Test results reported in publication PMC3914206.

Legend:
panel of 442 kinases [1] = target: T1, panel of 442 kinases (Homo sapiens, UniProt P42336, H1047Y); format: binding; settings: Compound Concentration 10 µM
T1 construct: purchased KINOMEscan
Text: (§1) We assessed the selectivity of members of this scaffold using the KINOMEscan methodology across a near comprehensive panel of 442 kinases [[18,27]].

panel of 442 kinases [2] = target: T2, panel of 442 kinases (Homo sapiens, UniProt Q13470); format: binding; settings: kinase TNK1; compound concentration 10 µM
T2 construct: purchased KINOMEscan
T2 sequence (Q13470 1-666): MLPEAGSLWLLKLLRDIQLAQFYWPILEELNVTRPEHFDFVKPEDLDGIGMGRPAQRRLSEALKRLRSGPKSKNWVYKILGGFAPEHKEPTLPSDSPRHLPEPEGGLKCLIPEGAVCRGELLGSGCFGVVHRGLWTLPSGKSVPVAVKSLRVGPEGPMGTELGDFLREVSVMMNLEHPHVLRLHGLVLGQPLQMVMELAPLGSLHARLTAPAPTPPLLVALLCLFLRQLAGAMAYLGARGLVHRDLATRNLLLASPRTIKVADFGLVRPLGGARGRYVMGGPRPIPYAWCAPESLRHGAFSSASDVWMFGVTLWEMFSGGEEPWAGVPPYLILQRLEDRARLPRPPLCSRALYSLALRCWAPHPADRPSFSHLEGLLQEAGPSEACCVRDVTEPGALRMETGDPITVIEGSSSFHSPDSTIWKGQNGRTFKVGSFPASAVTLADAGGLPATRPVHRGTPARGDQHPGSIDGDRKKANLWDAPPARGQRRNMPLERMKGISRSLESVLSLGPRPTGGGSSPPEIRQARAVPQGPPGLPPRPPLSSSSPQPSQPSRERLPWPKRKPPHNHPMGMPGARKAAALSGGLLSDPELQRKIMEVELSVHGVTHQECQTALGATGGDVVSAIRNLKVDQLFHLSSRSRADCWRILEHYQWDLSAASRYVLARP
Text: as §1

T1 sequence (P42336 whole entry H1047Y): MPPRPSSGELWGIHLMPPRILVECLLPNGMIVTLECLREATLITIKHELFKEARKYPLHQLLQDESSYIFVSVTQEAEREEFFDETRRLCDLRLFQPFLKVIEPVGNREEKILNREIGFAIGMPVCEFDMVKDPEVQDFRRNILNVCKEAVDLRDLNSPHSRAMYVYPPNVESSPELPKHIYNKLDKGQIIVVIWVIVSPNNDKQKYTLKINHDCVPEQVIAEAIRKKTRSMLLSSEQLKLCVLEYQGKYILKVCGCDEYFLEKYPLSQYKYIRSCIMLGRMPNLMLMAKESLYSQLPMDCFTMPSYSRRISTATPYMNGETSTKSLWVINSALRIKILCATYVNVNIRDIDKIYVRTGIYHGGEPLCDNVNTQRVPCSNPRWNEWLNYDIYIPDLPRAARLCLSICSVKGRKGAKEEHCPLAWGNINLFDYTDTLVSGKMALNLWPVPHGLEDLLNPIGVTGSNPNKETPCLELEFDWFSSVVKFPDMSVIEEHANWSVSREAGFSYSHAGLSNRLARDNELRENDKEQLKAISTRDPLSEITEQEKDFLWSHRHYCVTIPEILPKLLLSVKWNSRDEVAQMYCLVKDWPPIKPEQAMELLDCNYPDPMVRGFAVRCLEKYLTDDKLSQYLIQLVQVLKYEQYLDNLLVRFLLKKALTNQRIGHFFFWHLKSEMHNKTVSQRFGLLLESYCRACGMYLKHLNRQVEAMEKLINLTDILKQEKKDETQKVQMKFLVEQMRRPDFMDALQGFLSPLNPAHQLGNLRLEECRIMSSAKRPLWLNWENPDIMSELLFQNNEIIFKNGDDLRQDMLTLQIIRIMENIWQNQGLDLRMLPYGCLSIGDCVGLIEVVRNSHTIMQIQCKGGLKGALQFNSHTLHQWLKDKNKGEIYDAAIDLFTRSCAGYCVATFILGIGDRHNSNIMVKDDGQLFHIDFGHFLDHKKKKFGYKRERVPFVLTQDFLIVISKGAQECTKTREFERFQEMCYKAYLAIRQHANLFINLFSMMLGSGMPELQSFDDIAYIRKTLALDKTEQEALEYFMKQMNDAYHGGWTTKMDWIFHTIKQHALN

| Compound | KINOMEscan: PIK3CA(H1047Y) (panel of 442 kinases [1]) | % Ctrl, TNK1 (panel of 442 kinases [2]) [% Ctrl] |
| --- | --- | --- |
| COc1cc(C(=O)N2CCC(N3CCN(C)CC3)CC2)ccc1Nc1ncc2c(n1)N1CCc3cccc(c31)C(=O)N2C [Compound 24] | 68 | 5 |
| CCOc1cc(C(=O)N2CCC(N3CCN(C)CC3)CC2)ccc1Nc1ncc2c(n1)N(C1CCCC1)c1ccccc1C(=O)N2C [Compound 26] | 76 | 53 |
| COc1cc(C(=O)N2CCC(N3CCN(C)CC3)CC2)ccc1Nc1ncc2c(n1)N(C1CCCC1)c1ccccc1C(=O)N2C [Compound 25, 11-cyclopentyl-2-((2-methoxy-4-(4-(4-methylpiperazin-1-yl)piperidine-1-carbonyl)phenyl)amino)-5-methyl-5H-benzo[e]pyrimido[5,4-b][1,4]diazepin-6(11H)-one] | 100 | 7.8 |
| COc1cc(C(=O)N2CCC(N3CCN(C)CC3)CC2)ccc1Nc1ncc2c(n1)N(C)c1ccccc1C(=O)N2C [15 (LRRK2-IN-1)] | 71 | 2.8 |
